“Also recorded” adds a separate entry of the source.
Key:
[1] = system: PC12 cells; assay: CellTox assay, survival of PC12 cells under serum deprivation; assay type: cell-based; conditions: for protection of PC12 cells from serum deprivation-induced cell death (CellTox): compound 500 nM, 24 h, after 4 h serum starvation, NGF 100 ng/mL as control (Figure 9); for protection of PC12 cells from serum deprivation-induced death (CellTox): compound 1 μM, NGF 100 ng/mL as control (Figure 10)
Method: PC12 cells were obtained from LGC Promochem and cultured under specified conditions. Cells were grown in DMEM medium (Thermo Fischer Scientific, cat# 10566016) containing 10% horse serum (Thermo Fischer Scientific, cat# 16050122), 5% fetal bovine serum (Thermo Fischer Scientific, cat# 10270106), 100 units/mL penicillin, and 0.1 mg/mL streptomycin (Thermo Fischer Scientific, cat# 15140122) at 5% CO2 and 37°C. Cells were used between passages 5 and 20.
CellTox assay (G8742, Promega, Leiden, Belgium) was used to assess the survival of PC12 cells under serum deprivation conditions. PC12 cells were plated in 96-well plates, starved from serum for 4 h, and subsequently treated with NGF (100 ng/mL) or compound (500 nM) for 24 h. CellTox assay reagents and Hoescht (1:10,000, H3570, Invitrogen, Massachusetts, USA) were then added to each well for 30 min, and then, cells were imaged with a Zeiss AXIO Vert A1 fluorescent microscope. CellTox positive cells were normalized to the total number of cells for each image.
Initially, we tested compounds ENT-A002, ENT-A007, ENT-A009, ENTA025, ENT-A026, ENT-A033, ENT-A034, ENT-A035, ENT-A036, ENT-A037, ENT-A046, ENT-A047, ENT-A055, and ENT-A056 for their ability to protect PC12 cells from serum deprivation-induced cell death as well as for their ability to activate TrkA downstream pro-survival signaling kinases Akt and Erk1/2 (Figures 9A–C). We opted to employ PC12 cells, which express receptors TrkA and p75 and have been routinely used for investigating NGF-TrkA signaling. PC12 cells were subjected to a period of nutrient deprivation (without fetal bovine serum and horse serum in their culture medium) for 4 h. Following this, NGF (100 ng/mL) or one of the compounds (500 nM or 1 μM) was administered and allowed to interact with the cells for 24 h. Following that, CellTox and Hoescht dyes were added and cells were imaged to assess cell death. Control cases involved cells cultured in full medium (serum), cells under starvation conditions (serum-free), and cells under starvation conditions treated with DMSO (SF+DMSO).

[2] = system: NIH-3T3 TrkB-expressing cell line; assay: CellTox Green cytotoxicity assay in NIH-3T3 cells stable transfected with TrkB under serum deprivation; assay type: cell-based; conditions: compound 1 μM, 24 h, after 24 h serum starvation; BDNF 500 ng/mL as control
Method: We tested compounds on three cellular systems, primary cortical astrocytes from 2-day-old mice (as a natively TrkB-expressing neuronal population), and NIH-3T3 fibroblasts stable transfected with TrkB and NIH-3T3 naïve cells. Cells were grown with high-glucose DMEM medium supplemented with 10% fetal bovine serum (FBS), 100 μg/mL streptomycin, and 100 units/mL penicillin at 37°C in a humidified 5% CO2 atmosphere. Phosphorylation results presented here are in primary astrocytes, and cell toxicity assay results are in NIH-3T3 stable transfected cells with TrkB.
NIH-3T3 stable transfected cells with TrkB were plated in 96-well plates at a density of 10,000 cells/well, before carrying out serum starvation for 24 h. Cells were then treated for 24 h with either BDNF at 500 ng/mL (control) or the compounds at 1 μM.
For the cell toxicity assay, we used CellTox™ Green Dye (2,000 × , Promega) for the visualization of dead cells and Hoechst 33,342 solution (10,000 × ) for total cells. A ZEISS Axio Vert.A1 microscope was used for image capture, and the ImageJ software (https://imagej.nih.gov/ij/) was used for analysis. The number of CellTox positive cells was normalized against the total number of cells observed in each image.
The NIH-3T3 TrkB cell line, which is stable and transfected to specifically express the TrkB receptor, was used for the screening of the new compounds for their ability to protect cells from serum deprivation-induced apoptosis through the activation of the TrkB receptor. Cell death was induced by serum deprivation for 24 h and then BDNF (500 ng/mL), the native neurotrophin ligand of the TrkB receptor, or compounds ENT-A007, ENT-A009, ENTA025, ENT-A026, ENT-A033, ENT-A034, ENT-A035, ENT-A036, ENT-A037, ENT-A046, ENT-A047, ENT-A055, and ENT-A056 (1 μM) were added to the media for 24 h.

[3] = Metabolic stability in pooled human liver microsomes; assay type: in vitro ADME; conditions: 1 μM; for residual of time zero: pooled human liver microsomes 0.5 mg/mL, t = 60 min, NADPH; for parent structure loss (depletion) class: pooled human liver microsomes, 60 min
Method: For metabolic stability assessment, pooled human liver microsomes were employed at 0.5 mg/mL. Incubation conditions were optimized to ensure linear metabolite formation with respect to protein concentration and reaction time. All test compounds were assessed at 1 μM based on our ADMET standard operating procedures and protocols, also published previously (1 μM was selected based on our ADMET standard operating procedures and protocols also published previously) (Rogdakis et al., [2022]; Yilmaz et al., [2022]). Approximately 1 mM of NADPH served as a cofactor. Reactions took place in triplicates at 37°C. Negative and positive controls (low vs. rapid clearance) were included for low vs. rapid clearance. After 60 min, reactions were terminated.
Parent structure loss is classified as very slow (<5%), slow (5–19%), moderate (20–50%), fast (50–80%), or very fast (>80%). Such categories have been defined according to set criteria, namely, high metabolism (t1/2 value of <30 min), moderate metabolism (30 min <t1/2 value of <60 min), and low metabolism (t1/2 value of >60 min) (EMA, [2012], [2013]; FDA, [2020]).

| Structure (SMILES) | protection of PC12 cells from serum deprivation-induced cell death (CellTox) [1] | protection of NIH-3T3-TrkB cells from serum deprivation-induced cell death (CellTox) [2] | protection of PC12 cells from serum deprivation-induced death (CellTox) [1] | also measured |
| --- | --- | --- | --- | --- |
| C[C@]12CC[C@H](O)CC1=CC[C@@H]1[C@@H]2CC[C@@]2(C)[C@H]1CC[C@@]21CC=CCO1 [ENT-A002, (3S,17R)-3′,6′-dihydrospiro[5-androstene-17,2′-pyran]-3-ol] | did not show any protective effects | did not show any protective effects | – | – |
| C[C@]12CC[C@H](O)CC1=CC[C@@H]1[C@@H]2CC[C@@]2(C)[C@H]1CC[C@@]21CC=C(CO)CO1 [ENT-A008] | none of these compounds provided any protective effects | none of these compounds provided any protective effects | – | – |
| COC(=O)CSCC1=CCC2(CCC3C4CC=C5CC(O)CCC5(C)C4CCC32C)OC1 [ENT-A026, Methyl (3S,17R)-3-hydroxy-3’,6’-dihydrospiro[5-androstene-17,2’-pyran]-5’-yl-methylthio acetate] | none of these compounds provided any protective effects | none of these compounds provided any protective effects | – | – |
| CC12CCC(O)CC1=CCC1C2CCC2(C)C1CCC21CC=C(CC#N)CO1 [ENT-A033, (3S,17R)-3-hydroxy-3′,6′-dihydrospiro[5-androstene-17,2′-pyran]-5′-yl-acetonitrile] | none of these compounds provided any protective effects | none of these compounds provided any protective effects | – | – |
| C[C@]12CC[C@H](O)CC1=CC[C@@H]1[C@@H]2CC[C@@]2(C)[C@H]1CC[C@@]21CC=C(CF)CO1 [ENT-A034] | none of these compounds provided any protective effects | none of these compounds provided any protective effects | – | – |
| COc1ccc(COCC2=CC[C@@]3(CC[C@H]4[C@@H]5CC=C6C[C@@H](O)CC[C@]6(C)[C@H]5CC[C@@]43C)OC2)cc1 [ENT-A035] | none of these compounds provided any protective effects | none of these compounds provided any protective effects | – | – |
| C[C@]12CC[C@H](O)CC1=CC[C@@H]1[C@@H]2CC[C@@]2(C)[C@H]1CC[C@@]21CC=C(Cn2cc(CO)nn2)CO1 [ENT-A037, (3S,17R)-5′-[(4-(hydroxymethyl)-1H-1,2,3-triazol-1-yl)methyl]-3′,6′-dihydrospiro[5-androstene-17,2′-pyran]-3-ol] | – | – | – | melting point: 202 to 204 °C |
| C[C@]12CC[C@H](O)CC1=CC[C@@H]1[C@@H]2CC[C@@]2(C)[C@H]1CC[C@@]21CC=C(Cn2cc(CC3CCCCC3)nn2)CO1 [ENT-A047, (3S,17R)-5′-[(4-(cyclohexylmethyl)-1H-1,2,3-triazol-1-yl)methyl]-3′,6′-dihydrospiro[5-androstene-17,2′-pyran]-3-ol] | – | – | – | melting point: 181 °C (dec.) |
| CC12CCC(O)CC1=CCC1C2CCC2(C)C1CCC21CC=C(C=C2CCC2)CO1 [ENT-A065, (3S,17R)-5′-(cyclobutylidenemethyl)-3′,6′-dihydrospiro[5-androstene-17,2′-pyran]-3-ol] | – | – | promote cell survival as well as NGF does under stress conditions | – |
| CC12CCC(O)CC1=CCC1C2CCC2(C)C1CCC21CC=C(C=CBr)CO1 [ENT-A066, (3S,17R)-5′-(2-bromovinyl)-3′,6′-dihydrospiro[5-androstene-17,2′-pyran]-3-ol] | – | – | found to promote PC12 cell survival during stress conditions; also recorded: promote cell survival as well as NGF does under stress conditions | residual of time zero [3]: > 95%; parent structure loss (depletion) class [3]: very slow (very slow (<5%)) |
| CC=CC1=CCC2(CCC3C4CC=C5CC(O)CCC5(C)C4CCC32C)OC1 [ENT-A068, (E, Z) (3S,17R)-5′-(prop-1-en-1-yl)-3′,6′-dihydrospiro[5-androstene-17,2′-pyran]-3-ol] | – | – | found to promote PC12 cell survival during stress conditions; also recorded: promote cell survival as well as NGF does under stress conditions | – |
| CCC1CCC2(CCC3C4CC=C5CC(O)CCC5(C)C4CCC32C)OC1 [ENT-A069, (3S,17R)-5′-(ethyl)-3′,6′-tetrahydrospiro[5-androstene-17,2′-pyran]-3-ol] | – | – | found to promote PC12 cell survival during stress conditions; also recorded: promote cell survival as well as NGF does under stress conditions | residual of time zero [3]: 95%; parent structure loss (depletion) class [3]: slow (slow (5–19%)) |
| CCC1=CCC2(CCC3C4CC=C5CC(O)CCC5(C)C4CCC32C)OC1 [ENT-A070, (3S,17R)-5′-ethyl-3′,6′-dihydrospiro[5-androstene-17,2′-pyran]-3-ol] | – | – | found to promote PC12 cell survival during stress conditions; also recorded: promote cell survival as well as NGF does under stress conditions | residual of time zero [3]: > 95%; parent structure loss (depletion) class [3]: very slow (very slow (<5%)) |
| C[C@]12CC[C@H](O)CC1=CC[C@@H]1[C@@H]2CC[C@@]2(C)[C@H]1CCC21CC(=CC#N)C1 (stereo partly drawn) [ENT-A077] | – | – | – | melting point: 161 to 163 °C |
| C[C@]12CC[C@H](O)CC1=CC[C@@H]1[C@@H]2CC[C@@]2(C)[C@H]1CCC21CC(=CC(=O)O)C1 (stereo partly drawn) [ENT-A080] | – | – | – | melting point: 221 °C (dec.) |

— article PMC10568017, “A quest for the stereo-electronic requirements for selective agonism for the neurotrophin receptors TrkA and TrkB in 17-spirocyclic-dehydroepiandrosterone derivatives” (Frontiers in Molecular Neuroscience, 2023)
